Test results published in patent publication US20260027116A1, “Methods of Treating Chronic Graft-Versus-Host Disease Following Allogeneic Hematopoietic Stem Cell Transplantation” (Kadmon Corporation, LLC, priority 2022, published 2026).
Read-outs that look alike come from different tables or passages of the source.

Columns and labels:
[1] = pharmacokinetics in chronic GVHD patients; format: in vivo, human; conditions: 200 and 400 mg
[2] = molecular target: T1, OATPIB1 (Homo sapiens, UniProt Q9Y6L6); test: transporter inhibition in vitro; format: in vitro ADME; conditions: at clinically relevant concentrations
T1 sequence (Q9Y6L6 1-691): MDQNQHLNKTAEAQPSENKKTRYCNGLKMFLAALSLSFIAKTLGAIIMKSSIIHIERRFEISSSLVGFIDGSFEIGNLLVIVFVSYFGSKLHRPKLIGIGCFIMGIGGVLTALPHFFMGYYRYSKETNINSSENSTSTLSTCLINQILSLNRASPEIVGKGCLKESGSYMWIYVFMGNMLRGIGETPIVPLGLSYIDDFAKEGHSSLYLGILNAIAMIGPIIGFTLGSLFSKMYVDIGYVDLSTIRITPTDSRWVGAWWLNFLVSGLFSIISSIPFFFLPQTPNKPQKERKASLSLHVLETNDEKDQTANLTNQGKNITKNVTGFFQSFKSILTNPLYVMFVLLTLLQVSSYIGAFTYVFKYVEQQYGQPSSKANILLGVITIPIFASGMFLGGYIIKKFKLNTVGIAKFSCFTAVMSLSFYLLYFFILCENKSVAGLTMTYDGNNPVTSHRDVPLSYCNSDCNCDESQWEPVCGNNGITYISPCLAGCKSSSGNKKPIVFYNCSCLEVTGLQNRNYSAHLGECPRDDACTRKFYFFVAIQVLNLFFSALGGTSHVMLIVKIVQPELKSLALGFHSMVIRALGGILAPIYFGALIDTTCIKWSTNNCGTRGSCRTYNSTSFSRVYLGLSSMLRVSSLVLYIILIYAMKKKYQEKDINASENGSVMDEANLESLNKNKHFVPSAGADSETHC

[3] = molecular target: CYP2C19 (Homo sapiens, UniProt P33261); test: enzyme inhibition in vitro; format: in vitro ADME
Chain of CYP2C19 (P33261 whole entry): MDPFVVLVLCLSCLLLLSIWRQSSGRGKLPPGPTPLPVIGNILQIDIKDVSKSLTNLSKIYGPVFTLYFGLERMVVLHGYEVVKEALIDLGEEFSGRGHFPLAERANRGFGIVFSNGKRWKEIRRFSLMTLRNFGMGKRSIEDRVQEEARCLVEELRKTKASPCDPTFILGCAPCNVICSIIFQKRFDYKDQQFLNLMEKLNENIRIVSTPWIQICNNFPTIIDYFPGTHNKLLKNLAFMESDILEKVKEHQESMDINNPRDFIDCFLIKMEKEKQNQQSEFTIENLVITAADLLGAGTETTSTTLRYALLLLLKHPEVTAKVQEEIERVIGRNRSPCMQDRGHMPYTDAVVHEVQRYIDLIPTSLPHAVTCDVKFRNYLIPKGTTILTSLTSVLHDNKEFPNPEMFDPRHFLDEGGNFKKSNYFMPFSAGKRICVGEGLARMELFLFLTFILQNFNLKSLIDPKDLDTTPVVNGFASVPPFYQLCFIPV

[4] = molecular target: T2, UGT1A9 (Homo sapiens, UniProt O60656); test: enzyme inhibition in vitro; format: in vitro ADME
T2 sequence (O60656 26-530): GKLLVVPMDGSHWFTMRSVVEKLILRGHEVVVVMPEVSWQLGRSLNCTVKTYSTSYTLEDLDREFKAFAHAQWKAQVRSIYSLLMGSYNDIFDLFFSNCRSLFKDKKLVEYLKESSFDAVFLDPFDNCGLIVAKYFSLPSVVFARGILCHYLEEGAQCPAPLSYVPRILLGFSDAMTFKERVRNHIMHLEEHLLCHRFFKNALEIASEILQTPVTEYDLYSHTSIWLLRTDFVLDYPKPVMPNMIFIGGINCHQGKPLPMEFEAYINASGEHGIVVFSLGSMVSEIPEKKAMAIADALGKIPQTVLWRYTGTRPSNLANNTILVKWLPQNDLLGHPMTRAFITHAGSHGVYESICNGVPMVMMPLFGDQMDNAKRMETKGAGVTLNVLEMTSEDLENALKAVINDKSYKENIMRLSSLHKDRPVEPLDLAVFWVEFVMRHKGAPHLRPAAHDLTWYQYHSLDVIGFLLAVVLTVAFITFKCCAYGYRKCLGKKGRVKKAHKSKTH

[5] = test system: patients with chronic GVHD; conditions: for Abdominal pain / Arthralgia / Cough / Decreased appetite / Diarrhea / Dysphagia / Dyspnea / Edema / Headache / Hemorrhage / Hypertension / Infection (pathogen not specified) / Muscle spasm / Musculoskeletal pain / Nasal congestion / Pruritus / Pyrexia / Rash / Viral infection / Asthenia / Nausea: 200 mg once daily (N = 83); for Asthenia: includes fatigue, malaise; for Nausea: includes nausea, vomiting
[6] = Grade 2-4 Max Post, 200 mg once daily
[7] = Grade 3-4 Max Post, 200 mg once daily

## CC(C)NC(=O)COc1cccc(-c2nc(Nc3ccc4[nH]ncc4c3)c3ccccc3n2)c1 [Belumosudil, 2-{3-[4-(1H-indazol-5-ylamino)-2-quinazolinyl]phenoxy}-N-(propan-2-yl) acetamide]
[1]
  dose dependence of Cmax and AUC: approximately proportional
[2]
  inhibition of OATPIB1: inhibits
[3]
  inhibition of CYP2C19: inhibitor
[4]
  inhibition of UGT1A9: inhibitor
[5]; 200 mg once daily, N=83
  adverse reactions leading to dose interruption: 29%
  dose interruption due to asthenia, dyspnea, hemorrhage, hypotension, liver function test abnormal, nausea, pyrexia, edema, renal failure (each): 2%
  dose interruption due to diarrhea: 4%
  dose interruption due to infections: 11%
  patients with fatal adverse reaction: one
  permanent discontinuation due to adverse reactions: 18%
  permanent discontinuation due to nausea: 4%
[5]; All Grades
  Abdominal pain: 22%
  Arthralgia: 15%
  Cough: 30%
  Decreased appetite: 17%
  Diarrhea: 35%
  Dysphagia: 16%
  Dyspnea: 33%
  Edema: 27%
  Headache: 21%
  Hemorrhage: 23%
  Hypertension: 21%
  Infection (pathogen not specified): 53%
  Muscle spasm: 17%
  Musculoskeletal pain: 22%
  Nasal congestion: 12%
  Pruritus: 11%
  Pyrexia: 18%
  Rash: 12%
  Viral infection: 19%
  Asthenia: 46%
  Nausea: 42%
[5]; [6]
  Alanine Aminotransferase Increased: 7%
  Alkaline Phosphatase Increased: 9%
  Calcium Decreased: 12%
  Creatinine Increased: 4%
  Gamma Glutamyl Transferase Increased: 21%
  Hemoglobin Decreased: 11%
  Lymphocytes Decreased: 29%
  Neutrophil Count Decreased: 8%
  Phosphate Decreased: 28%
  Platelets Decreased: 10%
  Potassium Increased: 7%
[5]; [7]
  Alanine Aminotransferase Increased: 2%
  Alkaline Phosphatase Increased: 0%
  Calcium Decreased: 1%
  Creatinine Increased: 0%
  Gamma Glutamyl Transferase Increased: 11%
  Hemoglobin Decreased: 1%
  Lymphocytes Decreased: 13%
  Neutrophil Count Decreased: 4%
  Phosphate Decreased: 7%
  Platelets Decreased: 5%
  Potassium Increased: 1%
[5]; Grades 3-4
  Abdominal pain: 1%
  Arthralgia: 2%
  Cough: 0%
  Decreased appetite: 1%
  Diarrhea: 5%
  Dysphagia: 0%
  Dyspnea: 5%
  Edema: 1%
  Headache: 0%
  Hemorrhage: 5%
  Hypertension: 7%
  Infection (pathogen not specified): 16%
  Muscle spasm: 0%
  Musculoskeletal pain: 4%
  Nasal congestion: 0%
  Pruritus: 0%
  Pyrexia: 1%
  Rash: 0%
  Viral infection: 4%
  Asthenia: 4%
  Nausea: 4%
